One compound from BindingDB's records for patent US9018371 (Fm Therapeutics, 2015) can be followed below.

For the experiment, the target named is T1, Adenosine receptor A3 (Homo sapiens, UniProt P0DMS8).
T1 sequence (P0DMS8 whole entry): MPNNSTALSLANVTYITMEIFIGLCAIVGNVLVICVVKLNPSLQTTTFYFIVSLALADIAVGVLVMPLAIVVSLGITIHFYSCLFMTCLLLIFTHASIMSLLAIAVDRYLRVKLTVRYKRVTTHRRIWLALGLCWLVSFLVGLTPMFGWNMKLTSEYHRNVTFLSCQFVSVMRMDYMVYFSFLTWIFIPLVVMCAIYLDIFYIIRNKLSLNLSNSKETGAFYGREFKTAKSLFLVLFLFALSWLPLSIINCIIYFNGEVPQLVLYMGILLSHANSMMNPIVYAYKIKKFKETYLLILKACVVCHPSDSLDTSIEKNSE
As to the kind of experiment: Binding Assay.

Each structure is given as a SMILES string. pKi: −log10 of the molar value.

Description: Incubation for 1 hr in a 370C incubator was followed by rapid filtration in a vacuum using a cell collector (TOMTEC, U.S.A.). Subsequently, the test tubes were washed three times with 3 ml of the buffer before radioactivity was measured using a -counter.

One may read the pKi as −log10 of the Ki, conventionally taken in molar units. Read a low pKi as a high Ki. Compound `COc1ccccc1CNc1nc(Cl)nc2c1ncn2[C@@H]1SCC(O)[C@@H]1O` (stereo partly specified) [US9018371, 7] had a negative logarithm of the Ki (pKi) of 7.70.
